From PubChem BioAssay AID1963980 (Molecular Pharmacology Branch, DTP, NCI, 2024)

System: 475296-252-R-J1-PDC spheroid viability
Assay: Anticancer human tumor 475296-252-R-J1-PDC patient-derived rectal carcinoma cell line growth inhibition [PI3K]
Conditions: spheroids with HUVEC and MSC; for IC50: curve of first compound; for viability, T/C: stronger effect = lower value; active means viability on the fitted dose curve at most 10% of control; inactive means the rest
Outline: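 Three cell types, namely tumor cells, endothelial cells and mesenchymal stem cells, formed each spheroid. Combinations with four PI3K inhibitors were screened at clinically achievable concentrations decreasing by half-log, and spheroid viability was recorded.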

[1] = second compound 0.00316 µM, first compound 0.0316 µM
[2] = second compound 0.00316 µM, first compound 0.1 µM
[3] = second compound 0.00316 µM, first compound 0.316 µM
[4] = second compound 0.00316 µM, first compound 1 µM
[5] = second compound 0.00316 µM, first compound 3.16 µM
[6] = second compound 0.00316 µM, first compound 10 µM
[7] = second compound 0.01 µM, first compound 0.0316 µM
[8] = second compound 0.01 µM, first compound 0.1 µM
[9] = second compound 0.01 µM, first compound 0.316 µM
[10] = second compound 0.01 µM, first compound 1 µM
[11] = second compound 0.01 µM, first compound 3.16 µM
[12] = second compound 0.01 µM, first compound 10 µM
[13] = second compound 0.0316 µM, first compound 0.0316 µM
[14] = second compound 0.0316 µM, first compound 0.1 µM
[15] = second compound 0.0316 µM, first compound 0.316 µM
[16] = second compound 0.0316 µM, first compound 1 µM
[17] = second compound 0.0316 µM, first compound 3.16 µM
[18] = second compound 0.0316 µM, first compound 10 µM
[19] = second compound 0.1 µM, first compound 0.0316 µM
[20] = second compound 0.1 µM, first compound 0.1 µM
[21] = second compound 0.1 µM, first compound 0.316 µM
[22] = second compound 0.1 µM, first compound 1 µM
[23] = second compound 0.1 µM, first compound 3.16 µM
[24] = second compound 0.1 µM, first compound 10 µM
[25] = second compound 0.316 µM, first compound 0.0316 µM
[26] = second compound 0.316 µM, first compound 0.1 µM
[27] = second compound 0.316 µM, first compound 0.316 µM
[28] = second compound 0.316 µM, first compound 1 µM
[29] = second compound 0.316 µM, first compound 3.16 µM
[30] = second compound 0.316 µM, first compound 10 µM
[31] = second compound 1 µM, first compound 0.0316 µM
[32] = second compound 1 µM, first compound 0.1 µM
[33] = second compound 1 µM, first compound 0.316 µM
[34] = second compound 1 µM, first compound 1 µM
[35] = second compound 1 µM, first compound 3.16 µM
[36] = second compound 1 µM, first compound 10 µM
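Further: spheroids exposed to agents for seven days before readout.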

CC1(C)CCC(CN2CCN(c3ccc(C(=O)NS(=O)(=O)c4ccc(NCC5CCOCC5)c([N+](=O)[O-])c4)c(Oc4cnc5[nH]ccc5c4)c3)CC2)=C(c2ccc(Cl)cc2)C1 + COc1c(OCCCN2CCOCC2)ccc2c3n(c(=NC(=O)c4cnc(N)nc4)nc12)CCN3
> 10 µM: IC50 (second compound 0.00316 µM) | IC50 (second compound 0.01 µM) | IC50 (second compound 0.0316 µM) | IC50 (second compound 0.1 µM) | IC50 (second compound 0.316 µM)
5.62 µM: IC50 (second compound 1 µM)
inactive: viability, T/C [1] 107% | viability, T/C [2] 85.6% | viability, T/C [3] 111% | viability, T/C [4] 86.3% | viability, T/C [5] 105% | viability, T/C [6] 68.7% | viability, T/C [7] 96.2% | viability, T/C [8] 97.9% | viability, T/C [9] 87.5% | viability, T/C [10] 104% | viability, T/C [11] 86% | viability, T/C [12] 67.3% | viability, T/C [13] 98.6% | viability, T/C [14] 85.8% | viability, T/C [15] 82.5% | viability, T/C [16] 93.5% | viability, T/C [17] 79.8% | viability, T/C [18] 64% | viability, T/C [19] 91.8% | viability, T/C [20] 80.7% | viability, T/C [21] 78% | viability, T/C [22] 85% | viability, T/C [23] 70.6% | viability, T/C [24] 66.7% | viability, T/C [25] 67% | viability, T/C [26] 72.3% | viability, T/C [27] 63.7% | viability, T/C [28] 62% | viability, T/C [29] 66.8% | viability, T/C [30] 59.4% | viability, T/C [31] 63.2% | viability, T/C [32] 61.9% | viability, T/C [33] 58.8% | viability, T/C [34] 57.3% | viability, T/C [35] 62.4% | viability, T/C [36] 39.5%

C[C@@H](NC(=O)c1ncnc(N)c1Cl)c1ncc(C(=O)Nc2cc(C(F)(F)F)c(Cl)cn2)s1 + COc1c(OCCCN2CCOCC2)ccc2c3n(c(=NC(=O)c4cnc(N)nc4)nc12)CCN3
inactive: viability, T/C [1] 82.4% | viability, T/C [2] 88% | viability, T/C [3] 94.8% | viability, T/C [4] 101% | viability, T/C [5] 94.5% | viability, T/C [6] 79.3% | viability, T/C [7] 88% | viability, T/C [8] 86.8% | viability, T/C [9] 90.4% | viability, T/C [10] 85.9% | viability, T/C [11] 101% | viability, T/C [12] 67.3% | viability, T/C [13] 78.6% | viability, T/C [14] 83.7% | viability, T/C [15] 79.7% | viability, T/C [16] 78.1% | viability, T/C [17] 80.8% | viability, T/C [18] 61% | viability, T/C [19] 74.1% | viability, T/C [20] 74.1% | viability, T/C [21] 83.5% | viability, T/C [22] 69.3% | viability, T/C [23] 80.1% | viability, T/C [24] 43.3% | viability, T/C [25] 62.5% | viability, T/C [26] 61.8% | viability, T/C [27] 53.9% | viability, T/C [28] 67.4% | viability, T/C [29] 69% | viability, T/C [30] 32.6% | viability, T/C [31] 61.9% | viability, T/C [32] 58.6% | viability, T/C [33] 74.4% | viability, T/C [34] 58.9% | viability, T/C [35] 54.9% | viability, T/C [36] 23.8%
3.76 µM: IC50 (second compound 1 µM)
> 10 µM: IC50 (second compound 0.00316 µM) | IC50 (second compound 0.01 µM) | IC50 (second compound 0.0316 µM)
7.87 µM: IC50 (second compound 0.1 µM)
9.5 µM: IC50 (second compound 0.316 µM)

Cn1ncnc1[C@H]1c2n[nH]c(=O)c3cc(F)cc(c23)N[C@@H]1c1ccc(F)cc1 + COc1c(OCCCN2CCOCC2)ccc2c3n(c(=NC(=O)c4cnc(N)nc4)nc12)CCN3
> 0.1 µM: IC50 (second compound 0.00316 µM) | IC50 (second compound 0.01 µM) | IC50 (second compound 0.0316 µM) | IC50 (second compound 0.1 µM) | IC50 (second compound 0.316 µM) | IC50 (second compound 1 µM)
inactive: viability, T/C (second compound 0.00316 µM, first compound 0.000316 µM) 91.6% | viability, T/C (second compound 0.00316 µM, first compound 0.001 µM) 99% | viability, T/C (second compound 0.00316 µM, first compound 0.00316 µM) 115% | viability, T/C (second compound 0.00316 µM, first compound 0.01 µM) 99.5% | viability, T/C [1] 116% | viability, T/C [2] 109% | viability, T/C (second compound 0.01 µM, first compound 0.000316 µM) 95.5% | viability, T/C (second compound 0.01 µM, first compound 0.001 µM) 104% | viability, T/C (second compound 0.01 µM, first compound 0.00316 µM) 108% | viability, T/C (second compound 0.01 µM, first compound 0.01 µM) 99.4% | viability, T/C [7] 116% | viability, T/C [8] 94.7% | viability, T/C (second compound 0.0316 µM, first compound 0.000316 µM) 93.1% | viability, T/C (second compound 0.0316 µM, first compound 0.001 µM) 98% | viability, T/C (second compound 0.0316 µM, first compound 0.00316 µM) 106% | viability, T/C (second compound 0.0316 µM, first compound 0.01 µM) 99.2% | viability, T/C [13] 94.2% | viability, T/C [14] 93.3% | viability, T/C (second compound 0.1 µM, first compound 0.000316 µM) 85.3% | viability, T/C (second compound 0.1 µM, first compound 0.001 µM) 99.1% | viability, T/C (second compound 0.1 µM, first compound 0.00316 µM) 94.8% | viability, T/C (second compound 0.1 µM, first compound 0.01 µM) 75.1% | viability, T/C [19] 85% | viability, T/C [20] 75.8% | viability, T/C (second compound 0.316 µM, first compound 0.000316 µM) 82.4% | viability, T/C (second compound 0.316 µM, first compound 0.001 µM) 73.1% | viability, T/C (second compound 0.316 µM, first compound 0.00316 µM) 71.7% | viability, T/C (second compound 0.316 µM, first compound 0.01 µM) 86.1% | viability, T/C [25] 67.8% | viability, T/C [26] 75.7% | viability, T/C (second compound 1 µM, first compound 0.000316 µM) 65.4% | viability, T/C (second compound 1 µM, first compound 0.001 µM) 65% | viability, T/C (second compound 1 µM, first compound 0.00316 µM) 63.5% | viability, T/C (second compound 1 µM, first compound 0.01 µM) 70.8% | viability, T/C [31] 70.8% | viability, T/C [32] 55.4%
